In ChEMBL document CHEMBL1201862, “PubChem BioAssay data set” (2004):
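Tested at 5 concentrations; 48 h exposure; 96-well plates; endpoints linearly interpolated, else capped at highest concentration. GI50 is the concentration that inhibits growth by half.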 Activity calls are given as the source filed them. Rule as the data show it: active = GI50 up to about 1.1 µM and inactive = higher.

Experiments:
Test in all cases: NCI anticancer screen, dose series, 48 h
[1] = system: HOP-92
[2] = system: NCI/ADR-RES
[3] = system: NCI-H226
[4] = system: DU-145
[5] = system: SF-268
[6] = system: A549
[7] = system: UACC-257
[8] = system: M14
[9] = system: LOX IMVI
[10] = system: UACC-62
[11] = system: CAKI-1
[12] = system: SNB-19
[13] = system: TK-10
[14] = system: Malme-3M
[15] = system: KM12
[16] = system: MCF7
[17] = system: SR
[18] = system: Hs-578T
[19] = system: MDA-MB-435
[20] = system: SK-MEL-2
[21] = system: SK-MEL-5
[22] = system: HOP-62
[23] = system: K562
[24] = system: SN12C
[25] = system: SNB-75
[26] = system: SF-295
[27] = system: BT-549
[28] = system: SK-MEL-28
[29] = system: HT-29
[30] = system: OVCAR-8
[31] = system: SK-OV-3
[32] = system: ACHN
[33] = system: HCT-116
[34] = system: HCT-15
[35] = system: OVCAR-5
[36] = system: COLO 205
[37] = system: PC-3
[38] = system: EKVX
[39] = system: U-251
[40] = system: MDA-MB-231
[41] = system: A498
[42] = system: T47D
[43] = system: OVCAR-4
[44] = system: MDA-N
[45] = system: NCI-H522
[46] = system: UO-31
[47] = system: NCI-H23
[48] = system: IGROV-1
[49] = system: CCRF-CEM
[50] = system: HL-60
[51] = system: HCC 2998
[52] = system: RPMI-8226
[53] = system: OVCAR-3
[54] = system: SF-539
[55] = system: NCI-H460
[56] = system: 786-0
[57] = system: SW-620
[58] = system: MOLT-4
[59] = system: RXF 393

## CC1=C(C)[C@@]2(C)O[C@@]2(C)O[C@@]2(C)O[C@@]12C
[1]
  GI50: > 100 µM (inactive)
[2]
  GI50: > 100 µM (inactive)
[3]
  GI50: > 100 µM (inactive)
[4]
  GI50: > 100 µM (inactive)
[5]
  GI50: > 100 µM (inactive)
[6]
  GI50: > 100 µM (inactive)
[7]
  GI50: > 100 µM (inactive)
[8]
  GI50: > 100 µM (inactive)
[9]
  GI50: > 100 µM (inactive)
[10]
  GI50: > 100 µM (inactive)
[11]
  GI50: > 100 µM (inactive)
[12]
  GI50: > 100 µM (inactive)
[13]
  GI50: > 100 µM (inactive)
[14]
  GI50: > 100 µM (inactive)
[15]
  GI50: > 100 µM (inactive)
[16]
  GI50: > 100 µM (inactive)
[17]
  GI50: > 100 µM (inactive)
[18]
  GI50: > 100 µM (inactive)
[19]
  GI50: > 100 µM (inactive)
[20]
  GI50: > 100 µM (inactive)
[21]
  GI50: > 100 µM (inactive)
[22]
  GI50: > 100 µM (inactive)
[23]
  GI50: > 100 µM (inactive)
[24]
  GI50: > 100 µM (inactive)
[25]
  GI50: > 100 µM (inactive)
[26]
  GI50: > 100 µM (inactive)
[27]
  GI50: > 100 µM (inactive)
[28]
  GI50: > 100 µM (inactive)
[29]
  GI50: > 100 µM (inactive)
[30]
  GI50: > 100 µM (inactive)
[31]
  GI50: > 100 µM (inactive)
[32]
  GI50: > 100 µM (inactive)
[33]
  GI50: > 100 µM (inactive)
[34]
  GI50: > 100 µM
[35]
  GI50: > 100 µM (inactive)
[36]
  GI50: > 100 µM (inactive)
[37]
  GI50: > 100 µM (inactive)
[38]
  GI50: > 100 µM (inactive)
[39]
  GI50: > 100 µM (inactive)
[40]
  GI50: > 100 µM (inactive)
[41]
  GI50: > 100 µM (inactive)
[42]
  GI50: > 100 µM (inactive)
[43]
  GI50: > 100 µM (inactive)
[44]
  GI50: > 100 µM (inactive)
[45]
  GI50: > 100 µM (inactive)
[46]
  GI50: > 100 µM (inactive)
[47]
  GI50: > 100 µM (inactive)

## O=C1CC2CCC(C1)[S+]2[O-] (stereo not given)
[1]
  GI50: > 100 µM (inactive)
[2]
  GI50: > 100 µM (inactive)
[3]
  GI50: > 100 µM (inactive)
[4]
  GI50: > 100 µM (inactive)
[5]
  GI50: > 100 µM (inactive)
[48]
  GI50: > 100 µM (inactive)
[6]
  GI50: > 100 µM (inactive)
[7]
  GI50: > 100 µM (inactive)
[8]
  GI50: > 100 µM (inactive)
[9]
  GI50: > 100 µM (inactive)
[10]
  GI50: > 100 µM (inactive)
[11]
  GI50: > 100 µM (inactive)
[12]
  GI50: > 100 µM (inactive)
[13]
  GI50: > 100 µM (inactive)
[14]
  GI50: > 100 µM (inactive)
[49]
  GI50: > 100 µM (inactive)
[15]
  GI50: > 100 µM (inactive)
[16]
  GI50: > 100 µM (inactive)
[17]
  GI50: > 100 µM (inactive)
[18]
  GI50: > 100 µM (inactive)
[19]
  GI50: > 100 µM (inactive)
[20]
  GI50: > 100 µM (inactive)
[50]
  GI50: > 100 µM (inactive)
[51]
  GI50: > 100 µM (inactive)
[52]
  GI50: > 100 µM (inactive)
[53]
  GI50: > 100 µM (inactive)
[21]
  GI50: > 100 µM (inactive)
[54]
  GI50: > 100 µM (inactive)
[55]
  GI50: > 100 µM (inactive)
[22]
  GI50: > 100 µM (inactive)
[23]
  GI50: > 100 µM (inactive)
[24]
  GI50: > 100 µM (inactive)
[25]
  GI50: > 100 µM (inactive)
[26]
  GI50: 61.4 µM (inactive)
[56]
  GI50: > 100 µM (inactive)
[27]
  GI50: > 100 µM (inactive)
[28]
  GI50: > 100 µM (inactive)
[29]
  GI50: > 100 µM (inactive)
[57]
  GI50: > 100 µM (inactive)
[30]
  GI50: > 100 µM (inactive)
[31]
  GI50: > 100 µM (inactive)
[33]
  GI50: > 100 µM (inactive)
[34]
  GI50: > 100 µM
[58]
  GI50: > 100 µM (inactive)
[36]
  GI50: > 100 µM (inactive)
[37]
  GI50: > 100 µM (inactive)
[38]
  GI50: > 100 µM (inactive)
[39]
  GI50: > 100 µM (inactive)
[40]
  GI50: > 100 µM (inactive)
[42]
  GI50: > 100 µM (inactive)
[43]
  GI50: > 100 µM (inactive)
[59]
  GI50: > 100 µM (inactive)
[44]
  GI50: > 100 µM (inactive)
[45]
  GI50: > 100 µM (inactive)
[46]
  GI50: > 100 µM (inactive)
[47]
  GI50: > 100 µM (inactive)

## Cc1cc(S(=O)(=O)Nc2nc(Nc3ccccc3)n[nH]2)c(SSc2cc(Cl)c(C)cc2S(=O)(=O)Nc2nc(Nc3ccccc3)n[nH]2)cc1Cl
[2]
  GI50: > 100 µM (inactive)
[4]
  GI50: > 100 µM (inactive)
[5]
  GI50: 86.7 µM (inactive)
[48]
  GI50: > 100 µM (inactive)
[6]
  GI50: > 100 µM (inactive)
[7]
  GI50: > 100 µM (inactive)
[8]
  GI50: > 100 µM (inactive)
[9]
  GI50: > 100 µM (inactive)
[10]
  GI50: > 100 µM (inactive)
[11]
  GI50: 90.4 µM (inactive)
[12]
  GI50: 94.8 µM (inactive)
[13]
  GI50: 90.8 µM (inactive)
[14]
  GI50: 46.8 µM (inactive)
[49]
  GI50: 43.8 µM (inactive)
[15]
  GI50: > 100 µM (inactive)
[16]
  GI50: > 10 µM (inactive)
[17]
  GI50: 40.2 µM (inactive)
[18]
  GI50: 86.1 µM (inactive)
[19]
  GI50: > 100 µM (inactive)
[50]
  GI50: 25.1 µM (inactive)
[52]
  GI50: > 100 µM (inactive)
[53]
  GI50: > 100 µM (inactive)
[21]
  GI50: > 100 µM (inactive)
[54]
  GI50: > 10 µM (inactive)
[55]
  GI50: > 100 µM (inactive)
[22]
  GI50: > 100 µM (inactive)
[23]
  GI50: 32.6 µM (inactive)
[24]
  GI50: > 100 µM (inactive)
[25]
  GI50: > 100 µM (inactive)
[26]
  GI50: > 100 µM (inactive)
[27]
  GI50: > 100 µM (inactive)
[28]
  GI50: > 100 µM (inactive)
[29]
  GI50: 98.2 µM (inactive)
[57]
  GI50: > 100 µM (inactive)
[30]
  GI50: > 100 µM (inactive)
[31]
  GI50: > 100 µM (inactive)
[32]
  GI50: > 100 µM (inactive)
[33]
  GI50: > 100 µM (inactive)
[34]
  GI50: > 100 µM
[58]
  GI50: 35.7 µM (inactive)
[35]
  GI50: > 100 µM (inactive)
[36]
  GI50: > 100 µM (inactive)
[37]
  GI50: > 100 µM (inactive)
[38]
  GI50: > 100 µM (inactive)
[39]
  GI50: 61.4 µM (inactive)
[40]
  GI50: 32.2 µM (inactive)
[42]
  GI50: 67.5 µM (inactive)
[43]
  GI50: > 100 µM (inactive)
[59]
  GI50: > 10 µM (inactive)
[44]
  GI50: > 100 µM (inactive)
[46]
  GI50: > 100 µM (inactive)
[47]
  GI50: > 100 µM (inactive)
